Tests used:
[1] = Hydrolysis rate / drug release rate of the compounds (release of JAK inhibitor, HPLC); assay type: physicochemical; details: % release of JAK inhibitor from sample in acetonitrile/water=7/3 (v/v), 37° C. constant temperature shaker, sampled days 1-4, HPLC
Method in brief: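 HPLC quantified parent JAK inhibitor freed from each compound, calibrated with 0.0002–0.08 mg/mL standards. Samples in acetonitrile/water 7/3 were kept sealed at 37° C and analysed at day 0 and on days 1 to 4. % release was computed from sample weight, curve slope/intercept and the molecular-weight ratio.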

[2] = test system: IMQ-induced psoriasis mouse model; experiment: IMQ-induced psoriasis mouse model, PASI score of compound ointments applied to skin; assay type: in vivo; details: ointment 20 mg/g, 50 mg, skin smear BID, day 1 to day 9; BALB/c mice, 5% IMQ cream; Two-way ANOVA p<0.05
Protocol: Efficacy Evaluation Study of Ointment Transdermal Patch Formulated by Compounds Using IMQ-Induced Psoriasis Mouse Model
BALB/c mice (male) aged 6-8 weeks were selected to have depilated back skin with an area of 2×3 cm. 5% IMQ cream 62.5 mg was applied once a day for 9 consecutive days for model induction. Mice were housed in an SPF-grade animal room in IVC cages at a temperature of 20-26° C. and a humidity of 40-70% under a 12-hour light-dark cycle. Diet ad libitum, except where fasting is required.
Mice were randomly divided into groups, a number of 8 mice, administration concentration 20 mg/g, administration amount 50 mg, administration route, and frequency: skin smear, BID. The positive control was compound dexamethasone acetate (Dex) cream which is a commercially available product with a Dex content of 0.75 mg/g (999 Piyanping, Sanjiu Pharmaceutical). Dosing started from day 1 (the first day) (the day of model induction) to day 9.
2. Preparation of Test Ointment
Topical preparations are mostly semi-solid dosage forms. The base and solvent of a semi-solid dosage form are generally widely used in medicine and daily chemical products. The excipients which can be added are also the common excipients in the manual of excipients. Therefore, the patent compounds are prepared into corresponding test ointments. The ointment compound was dissolved with diisopropyl adipate to prepare a vaseline-based ointment. In order to improve the stability of the ointment, microcrystalline cellulose was added as an excipient in the formulation. The white vaseline has a melting point of 45-60° C. The solution, white vaseline, and microcrystalline cellulose are thoroughly mixed while the vaseline is in a molten state. After cooling to solidification, it was divided into an aluminum ointment, and the specific weight ratios of base, solvent, and excipients are shown in Table 4.
Dorsal modeling site skin PASI was performed on the experimental animals.
Statistical analysis of PASI scores was performed using Two-way ANOVA. All data were analyzed using GraphPad Prism 8.0 software with a p<0.05 significant difference (*, p<0.05; **, p<0.01).
The PASI score curves of CPD-029, CPD-028, CPD-027, CPD-017, and CPD-002 compared with the model group, excipient group, and Dex cream group are shown in FIGS. 1, 2, 3, 4, and 5, respectively. Among them, the model group was treated with 62.5 mg of 5% IMQ cream applied to the back skin of mice once daily to induce psoriasis, and the excipient group was treated with 15% (w/w) diisopropyl adipate, 80% vaseline, and […].

Structure (SMILES)	Release Rate (%/day) [1] [%/day]	PASI score: therapeutic effect compared with the excipient group [2]
CCC(C(=O)n1ccc2c(N(C)[C@H]3CN(C(=O)CC#N)CC[C@H]3C)ncnc21)c1ccc(N2Cc3ccccc3C2=O)cc1 (stereo partly drawn) [Ex. 29, 3-((3R, 4R)-4-methyl-3-(methyl (7-(2-(4-(1-oxoisoindolin-2-yl)phenyl)butanoyl)-7H-pyrrolo [2,3-d]pyrimidin-4-yl)amino)piperidin-1-yl)-3-oxopropanenitrile]	7.08	significant therapeutic effect in day 5-day 10
CNS(=O)(=O)CC1CCC(N(C)c2ncnc3c2ccn3C(=O)[C@@H](C)c2ccc(CC(C)C)cc2)CC1 (stereo partly drawn) [Ex. 27, 1-((1S, 4R)-4-((7-((S)-2-(4-isobutylphenyl)propanoyl)-7H-pyrrolo [2,3-d]pyrimidin-4-yl) (methyl)amino)cyclohexyl)-N-methyl methanesulfonamide]	7.48	significant therapeutic effect in day 5-day 10
CC(C)Cc1ccc([C@H](C)C(=O)n2ccc3c(N(C)[C@H]4CN(C(=O)CC#N)CC[C@H]4C)ncnc32)cc1 [Ex. 2, 3-((3R,4R)-3-((7-((S)-2-(4-isobutylphenyl)propanoyl)-7H-pyrrolo[2,3-d]pyrimidin-4-yl) (methyl)amino)-4-methylpiperidin-1-yl)-3-oxopropanenitrile]	8.5	significant therapeutic effect in day 4 day 8
CC(C)Cc1ccc([C@H](C)C(=O)n2ccc3c(-c4cnn([C@H](CC#N)C5CCCC5)c4)ncnc32)cc1 [Ex. 28]	2.98	significant therapeutic effect in day 5-day 10
CCS(=O)(=O)N1CC(CC#N)(n2cc(-c3ncnc4c3ccn4C(=O)[C@@H](C)c3ccc(CC(C)C)cc3)cn2)C1 [Ex. 17, (S)-2-(1-(ethylsulfonyl)-3-(4-(7-(2-(4-isobutyl-phenyl)propanoyl)-7H-pyrrolo[2,3-d]pyrimidin-4-yl)-1H-pyrazol-1-yl)azetidin-3-yl)acetonitrile]	2.44	significant therapeutic effect in day 5-day 10

— patent publication US12290519B2, “Anti-inflammatory coupling compound drug, and preparation method therefor and use thereof” (COVAL BIOPHARMA (SHANGHAI) CO., LTD., priority 2021, dated 2025)
